Marks after values point to notes of the source that are not given here.
Experiments:
Type in all cases: in vivo
[1] = test system: obesity mice model (C57BL/6 male mice, high-fat feed); assay: Obesity animal model (high-fat feed), body weight; details: bacterial solution 1×10^8 cfu/ml by gavage; for Weight of mice, Week 9: Week 9, *P<0.05 relative to model group
Experimental: The obesity animal model is constructed by using C57BL/6 male mice (purchased from Guangdong Medical Experimental Animal Center) at 8 weeks old and 20±2 g of body weight, which is housed in a specific pathogen free (SPF) environment and access to food and water ad lib. The mice are randomly divided into 5 groups, with 10 mice in each group.
Bacterial agent group 1: mice were fed with high-fat feed every day, in which the AM25-6 bacterial solution (1×10^8 cfu/ml) was administered by gavage for 9 weeks after 4 weeks of feeding high-fat feed;
Bacterial agent group 2: mice were fed with high-fat feed every day, in which the DSM 17244 bacterial solution (1×10^8 cfu/ml) was administered by gavage for 9 weeks after 4 weeks of feeding high-fat feed;
Bacterial agent group 3: mice were fed with high-fat feed every day, in which the DSM 28733 bacterial solution (1×10^8 cfu/ml) was administered by gavage for 9 weeks after 4 weeks of feeding high-fat feed;
Obesity model group: mice were fed with high-fat feed every day, in which the culture medium in a same amount was administered by gavage for 9 weeks after 4 weeks of feeding high-fat feed.
During the experimental period, experimental data such as the body weight, body condition and food intake amount of mice were recorded every week. After the completion of experiment, the mice were sacrificed, and the fat weight was recorded and the serum was collected for detecting blood lipids by using the Elisa kit.

[2] = test system: T2D mice model (C57bL/6 mice); assay: T2D animal model (STZ plus high-fat feed), body weight; details: gavage
Experimental: (§1) The T2D animal model is constructed by using C57bL/6 mice (purchased from Guangdong Medical Experimental Animal Center) at 8 weeks old and 20±2 g of body weight. The mice were housed in a specific pathogen free (SPF) environment and adaptively fed for 1 week, followed by grouping and modeling. The T2D animal model is induced by injection of streptozotocin (STZ) along with feeding high-fat feed, and the mice having fasting blood glucose (FBG) reaching to 10 mM/L can be used as a T2D mice model. Fifty mice selected for experiments are randomly divided into 5 groups.
(§2) Bacterial agent group 1: the T2D mice model was administered with the AM25-6 bacterial solution (1×10^8 cfu/ml) by gavage;
(§3) Bacterial agent group 2: the T2D mice model was administered with the DSM 17244 bacterial solution (1×10^8 cfu/ml) by gavage;
(§4) Bacterial agent group 3: the T2D mice model was administered with the DSM 28733 bacterial solution (1×10^8 cfu/ml) by gavage;
(§5) Metformin treatment group: the T2D mice model was treated with the positive drug metformin.
(§6) The experiment was carried out based on the different groups. After the construction of T2D mice model (i.e., FBG>10), the treatment was started and lasted for 2 months. The food intake amount and body weight of mice were recorded daily. Blood of mice was collected from the tail vein every week for detection of fasting blood glucose. The oral glucose tolerance test (OGTT) of mice was measured at week 4 of treatment and at the end of the experiment.

[3] = test system: T2D mice model (C57bL/6 mice); assay: T2D animal model, fasting blood glucose
Experimental: as §1, §2, §3, §4, §5, §6

[4] = test system: T2D mice model (C57bL/6 mice); assay: T2D animal model, oral glucose tolerance test (OGTT); details: for Blood glucose in OGTT, 0 minute: 0 minute after glucose by gavage; for Blood glucose in OGTT, 30 minutes: 30 minutes after glucose by gavage; for Blood glucose in OGTT, 60 minutes: 60 minutes after glucose by gavage; for Blood glucose in OGTT, 90 minutes: 90 minutes after glucose by gavage; for Blood glucose in OGTT, 120 minutes: 120 minutes after glucose by gavage
Experimental: as §1, §6
The results of oral glucose tolerance test (OGTT) for mice shown in Table 8 indicate that the blood glucose of mice reaches the highest level (i.e., 17.8-23.1 mmol/L) at 30 minutes upon administration of glucose by gavage. […] From the perspective of overall glucose tolerance process, it can be seen that Anaerofustis stercorihominis can effectively ameliorate glucose intolerance in diabetic mice.

[5] = test system: C57bL/6 mice fed with high-fat feed; assay: Hyperlipidemia animal model (high-fat feed), blood lipids and blood viscosity; details: for blood viscosity: carotid artery blood, hemorheological examination; for HDLC (high-density lipoprotein) / LDLC (low-density lipoprotein) / TC (total cholesterol) / TG (triglyceride): serum, bacterial solution 2 ml 1×10^9 cfu/ml daily or tablets 0.6 g/kg
Experimental: Sixty C57bL/6 mice (purchased from Guangdong Medical Experimental Animal Center) at 6 weeks old were used in this experiment, which were normally fed in a Specific pathogen Free (SPF) environment. The mice were adaptively fed for 1 week and then randomly divided into 6 groups, with 10 mice in each group. The animal model is constructed along with intervention.
Bacterial agent group 1: the mice were fed with high-fat feed and 2 ml of AM25-6 bacterial solution (1×10^9 cfu/ml) daily;
Bacterial agent group 2: the mice were fed with high-fat feed and 2 ml of DSM 17244 bacterial solution (1×10^9 cfu/ml) daily;
Bacterial agent group 3: the mice were fed with high-fat feed and 2 ml of DSM 28733 bacterial solution (1×10^9 cfu/ml) daily;
Tongmai Jiangzhi tablet group (a positive drug for the treatment of hyperlipidemia): the mice were fed with high-fat feed and 0.6 g/kg Tongmai Jiangzhi tablets;
Experimental data such as the body condition, food intake amount and the like of mice was recorded every week before and after the intervention of the model. After the completion of experiment, the mice were sacrificed, and the fat content was recorded, the serum was collected for detection of blood lipid contents (including total cholesterol (TC), triglyceride (TG), high-density lipoprotein (HDLC) and low-density lipoprotein (LDLC)) in the serum according to the instruction of kit. Blood from the last carotid artery was taken for hemorheological examination.

[6] = test system: SD rats, myocardial ischemia induced by pituitrin; assay: Experimental myocardial ischemia in rats induced by pituitrin, ST-segment displacement; details: gavage daily for 10 days, pituitrin 1 unit/kg iv., **P<0.01, *P<0.05 relative to model group
Experimental: Fifty SD rats (purchased from Guangdong Medical Experimental Animal Center, half male and half female) at 180-220 g of body weight and 6 weeks old were used in this experiment, which were normally fed in a Specific pathogen Free (SPF) environment. The rats were adaptively fed for 1 week and then randomly divided into 5 groups, with 10 rats in each group.
Model group: the rats were fed with 2.5 ml/kg PBS by gavage daily for 10 consecutive days; Bacterial agent group 1: the rats were fed with 2.5 ml/kg AM25-6 bacterial solution (1×10^9 cfu/ml) by gavage daily for 10 consecutive days;
Bacterial agent group 2: the rats were fed with 2.5 ml/kg DSM 17244 bacterial solution (1×10^9 cfu/ml) by gavage daily for 10 consecutive days;
Bacterial agent group 3: the rats were fed with 2.5 ml/kg DSM 28733 bacterial solution (1×10^9 cfu/ml) by gavage daily for 10 consecutive days;
FuFangDanShen tablet group: the rats were fed with 2 g/kg FuFangDanShen tablet (SFDA approval number Z21020381, Tianjin Tasly (Liaoning) Pharmaceutical Co., Ltd.) by gavage daily for 10 consecutive days.
For each group, the standard lead I electrocardiogram was recorded post 1 hour of last administration, followed by sublingual intravenous injection (iv.) with pituitrin (SFDA approval number H31022259, specifications: 2 ml: 6 units, from Shanghai First Biochemical & Pharmaceutical Industry Co., Ltd.) in 1 unit/kg (in a volume of 1 ml/kg) within 15 seconds, after which the change of electrocardiogram was recorded post 5 seconds, 15 seconds, 30 seconds, 1 minute, 2 minutes, 3 minutes and 5 minutes, and the change of ST segment displacement before and after administration of pituitrin was measured and compared, with statistical analysis by using t test between groups.

[7] = Week 9, *P<0.05 relative to model group

## Anaerofustis stercorihominis DSM 17244 [Bacterial agent group 2]
[1]
  Weight of mice, Week 1: 20.15 g
  Weight of mice, Week 3: 21.78 g
  Weight of mice, Week 5: 22.99 g
  Weight of mice, Week 7: 23.88 g
  Weight of mice, Week 9: 25.62* g
[2]; Week 1
  Body weight: 21.55 g
[2]; Week 3
  Body weight: 22.43 g
[2]; Week 5
  Body weight: 23.78 g
[2]; Week 7
  Body weight: 25.13 g
[2]; [7]
  Body weight: 25.58* g
[3]
  Fasting blood glucose, Week 1: 15.8 mmol/L
  Fasting blood glucose, Week 3: 15.7 mmol/L
  Fasting blood glucose, Week 5: 14.6 mmol/L
  Fasting blood glucose, Week 7: 11.7* mmol/L
  Fasting blood glucose, Week 9: 9.0** mmol/L
[4]
  Blood glucose in OGTT, 0 minute: 9.7 mmol/L
  Blood glucose in OGTT, 30 minutes: 18.0 mmol/L
  Blood glucose in OGTT, 60 minutes: 14.9 mmol/L
  Blood glucose in OGTT, 90 minutes: 12.1* mmol/L
  Blood glucose in OGTT, 120 minutes: 9.9 mmol/L
[5]
  blood viscosity: 1.29*
  HDLC (high-density lipoprotein): 3.219 mmol/L
  LDLC (low-density lipoprotein): 1.585* mmol/L
  TC (total cholesterol): 4.021* mmol/L
  TG (triglyceride): 0.933* mmol/L
[6]
  ST-segment displacement (±S): 0.018 ± 0.012** mv

## Anaerofustis stercorihominis DSM 28733 [Bacterial agent group 3]
[1]
  Weight of mice, Week 1: 21.19 g
  Weight of mice, Week 3: 22.44 g
  Weight of mice, Week 5: 23.78 g
  Weight of mice, Week 7: 24.19 g
  Weight of mice, Week 9: 25.67* g
[2]; Week 1
  Body weight: 21.76 g
[2]; Week 3
  Body weight: 23.36 g
[2]; Week 5
  Body weight: 24.57 g
[2]; Week 7
  Body weight: 25.14 g
[2]; [7]
  Body weight: 25.45* g
[3]
  Fasting blood glucose, Week 1: 16.7 mmol/L
  Fasting blood glucose, Week 3: 15.5 mmol/L
  Fasting blood glucose, Week 5: 13.6* mmol/L
  Fasting blood glucose, Week 7: 10.4** mmol/L
  Fasting blood glucose, Week 9: 7.8** mmol/L
[4]
  Blood glucose in OGTT, 0 minute: 9.6 mmol/L
  Blood glucose in OGTT, 30 minutes: 18.2 mmol/L
  Blood glucose in OGTT, 60 minutes: 15.6 mmol/L
  Blood glucose in OGTT, 90 minutes: 11.7* mmol/L
  Blood glucose in OGTT, 120 minutes: 10.2 mmol/L
[5]
  blood viscosity: 1.25*
  HDLC (high-density lipoprotein): 3.311 mmol/L
  LDLC (low-density lipoprotein): 1.423* mmol/L
  TC (total cholesterol): 4.017* mmol/L
  TG (triglyceride): 0.912* mmol/L
[6]
  ST-segment displacement (±S): 0.020 ± 0.012** mv

## Anaerofustis stercorihominis AM25-6 [Bacterial agent group 1]
[1]
  Weight of mice, Week 1: 21.13 g
  Weight of mice, Week 3: 22.59 g
  Weight of mice, Week 5: 23.98 g
  Weight of mice, Week 7: 24.13 g
  Weight of mice, Week 9: 25.47* g
[2]; Week 1
  Body weight: 22.34 g
[2]; Week 3
  Body weight: 23.57 g
[2]; Week 5
  Body weight: 24.26 g
[2]; Week 7
  Body weight: 25.53 g
[2]; [7]
  Body weight: 25.97* g
[3]
  Fasting blood glucose, Week 1: 16.1 mmol/L
  Fasting blood glucose, Week 3: 15.6 mmol/L
  Fasting blood glucose, Week 5: 13.2* mmol/L
  Fasting blood glucose, Week 7: 10.4** mmol/L
  Fasting blood glucose, Week 9: 8.6** mmol/L
[4]
  Blood glucose in OGTT, 0 minute: 9.1 mmol/L
  Blood glucose in OGTT, 30 minutes: 17.8 mmol/L
  Blood glucose in OGTT, 60 minutes: 15.9 mmol/L
  Blood glucose in OGTT, 90 minutes: 11.5* mmol/L
  Blood glucose in OGTT, 120 minutes: 10.1 mmol/L
[5]
  blood viscosity: 1.26*
  HDLC (high-density lipoprotein): 3.219 mmol/L
  LDLC (low-density lipoprotein): 1.454* mmol/L
  TC (total cholesterol): 4.014* mmol/L
  TG (triglyceride): 0.893* mmol/L
[6]
  ST-segment displacement (±S): 0.017 ± 0.011** mv

From patent US11903981B2, “Use of Anaerofustis stercorihominis in preventing and/or treating metabolic diseases” (priority 2018, dated 2024)
